Laboratory results reported in article PMC4604124, “In Vitro Characterization of the Pharmacological Properties of the Anti-Cancer Chelator, Bp4eT, and Its Phase I Metabolites” (PLoS ONE, 2015).
Where “and” joins values, the source holds several entries; their conditions need not be identical. Equal entries are not always repeated. Where two headings read alike, the source gives them in different places.

Key:
H9c2 cardiomyoblasts = test: MTT cytotoxicity assay, H9c2 cells; format: cell-based, rat; details: for IC50: MTT
In short: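 Cells were seeded 24 h at 37°C (MCF-7 5,000, HCT116 and A549 2,000, H9c2 10,000 cells/well; H9c2 then given serum- and pyruvate-free DMEM for 24 h) and exposed to compounds for 72 h in medium with 0.1% DMSO. MTT absorbance was read at 570 nm minus 690 nm; IC50 came from viability relative to untreated controls.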

[1] = set-up: method as in PMID 24254882; details: cited from earlier work
[2] = test system: cancer cells (HL-60, MCF-7, HCT116, A549) and non-cancerous cells (H9c2, 3T3); test: MTT cytotoxicity assay, summary over the cell line panel; format: cell-based; details: HL-60, MCF-7, HCT116, A549; 72 h; read-out: IC50, range over cancer cells
Protocol: For cytotoxicity experiments, cancer cells were seeded at a density of 5,000 (MCF-7), 10,000 (HL-60) or 2,000 cells/well (HCT116 and A549) in 96-well plates (TPP) for 24 h/37°C prior to the addition of examined agents. The non-cancerous cells, 3T3 and H9c2 cells, were cultured for 24 h/37°C in 96-well plates at a density of 10,000 cells/well, the medium was then changed to serum- and pyruvate-free DMEM (Sigma-Aldrich) and incubated with the cells for another 24 h/37°C. The cytotoxic effects of Bp4eT and its metabolites were studied at different concentrations after a 72 h/37°C incubation. In order to aid the dissolution of the lipophilic ligands, 0.1% dimethyl sulfoxide (v/v) (DMSO; Sigma-Aldrich) was present in the culture medium of all groups. At this concentration, DMSO had no effect on cellular proliferation or viability.
The viability of cells were determined using an MTT assay (Sigma-Aldrich) according to previously established methods. The optical density of soluble MTT was measured at λ = 570 nm, subtracting the λ = 690 nm background using a Tecan Infinite 200M plate reader (Tecan Group, Männedorf, Switzerland). The viability or proliferation of experimental groups was expressed as a percentage of the untreated controls (100%).
SigmaStat for Windows 3.5 (Systat Software, San Jose, CA, USA) statistical software package was utilized to analyze results. The data are expressed as the mean ± SD of a given number of experiments. Statistical significance was determined using a one-way ANOVA with a Bonferroni post-hoc test or Student’s t-test. The results were considered to be statistically significant when p < 0.05. The IC50 values were calculated using CalcuSyn 2.0 software (Biosoft, Cambridge, UK). Cell cycle analysis was evaluated using MultiCycle AV Software (Phoenix Flow Systems, San Diego, CA, USA).

[3] = MTT cytotoxicity assay, 3T3 cells; format: cell-based, mouse; details: mouse, 3T3 mouse embryo fibroblasts, 3T3, 10 000 b/j; for viability at 72 h, 1 μM: koncentrace 1 μM; for viability at 72 h, 3 μM: koncentrace 3 μM; for viability at 72 h, 10 μM: koncentrace 10 μM; for viability at 72 h, 30 μM: koncentrace 30 μM; for viability at 72 h, 100 μM: koncentrace 100 μM; for viability at 72 h, 300 μM: koncentrace 300 μM; for viability at 72 h, 1000 μM: koncentrace 1000 μM
In short: (§1)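 3T3 fibroblast viability was measured with an MTT assay, reading optical density at λ = 570 nm with λ = 690 nm background subtracted on a Tecan Infinite 200M. Results were expressed as a percentage of untreated controls (100%) and reported as mean ± SD. IC50 values came from CalcuSyn 2.0 after a 72 h/37°C incubation.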

[4] = test system: 3T3 mouse embryo fibroblasts; test: MTT cytotoxicity assay, 3T3 cells; format: cell-based; details: for IC50: MTT
In short: as §1

[5] = Viability (viabilita) used to normalise caspase activity; format: cell-based, human; details: human, MCF-7 cells, kontrola = 100;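 also: compound tested at 100 nM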
Text: Supplement pone.0139929.s002.zip/caspases activity.xlsx, sheet "results_viability"

[6] = individual experiments, read-out: MTT viability (0 = 100)
[7] = mean, read-out: MTT viability (0 = 100), průměr

Compound: CCN=CNN=C(c1ccccc1)c1ccccn1 [Bp4eA, N ^3-ethyl-N ^1-[phenyl(pyridin-2-yl)methylene]formamidrazone]
- MTT, relative to control (0 = 100) (H9c2 cardiomyoblasts; H9c2, 10 000 b/j, 1 μM, průměr (mean), sheet Bp4eA): 96.26
- MTT, relative to control (0 = 100) (H9c2 cardiomyoblasts; H9c2, 10 000 b/j, 1 μM, single experiment (date), sheet Bp4eA): 96.9641 and 92.8493 and 97.4859 and 95.7195 and 98.2981
- MTT, relative to control (0 = 100) (H9c2 cardiomyoblasts; H9c2, 10 000 b/j, 3 μM, průměr (mean), sheet Bp4eA): 96.27
- MTT, relative to control (0 = 100) (H9c2 cardiomyoblasts; H9c2, 10 000 b/j, 3 μM, single experiment (date), sheet Bp4eA): 100.784 and 93.7843 and 97.6949 and 91.6948 and 97.3803
- MTT, relative to control (0 = 100) (H9c2 cardiomyoblasts; H9c2, 10 000 b/j, 10 μM, průměr (mean), sheet Bp4eA): 95.56
- MTT, relative to control (0 = 100) (H9c2 cardiomyoblasts; H9c2, 10 000 b/j, 10 μM, single experiment (date), sheet Bp4eA): 96.5102 and 92.1411 and 95.5166 and 98.0809
- MTT, relative to control (0 = 100) (H9c2 cardiomyoblasts; H9c2, 10 000 b/j, 30 μM, průměr (mean), sheet Bp4eA): 93.18
- MTT, relative to control (0 = 100) (H9c2 cardiomyoblasts; H9c2, 10 000 b/j, 30 μM, single experiment (date), sheet Bp4eA): 94.6024 and 93.1446 and 95.1622 and 88.8218 and 94.1801
- MTT, relative to control (0 = 100) (H9c2 cardiomyoblasts; H9c2, 10 000 b/j, 100 μM, průměr (mean), sheet Bp4eA): 76.55
- MTT, relative to control (0 = 100) (H9c2 cardiomyoblasts; H9c2, 10 000 b/j, 100 μM, single experiment (date), sheet Bp4eA): 76.7908 and 72.9908 and 82.9441 and 73.781 and 76.2525
- MTT, relative to control (0 = 100) (H9c2 cardiomyoblasts; H9c2, 10 000 b/j, 300 μM, průměr (mean), sheet Bp4eA): 66.55
- MTT, relative to control (0 = 100) (H9c2 cardiomyoblasts; H9c2, 10 000 b/j, 300 μM, single experiment (date), sheet Bp4eA): 71.4763 and 63.147 and 62.7404 and 68.8465
- MTT, relative to control (0 = 100) (H9c2 cardiomyoblasts; H9c2, 10 000 b/j, 1000 μM, průměr (mean), sheet Bp4eA): 23.16
- MTT, relative to control (0 = 100) (H9c2 cardiomyoblasts; H9c2, 10 000 b/j, 1000 μM, single experiment (date), sheet Bp4eA): 17.0741 and 23.4615 and 18.1134 and 33.9931
- IC50 (H9c2 cardiomyoblasts; H9c2, 10 000 b/j, single experiment (date), sheet Bp4eA, read-out: IC50 měřené): 510 µM and 315 µM and 533 µM
- IC50 (H9c2 cardiomyoblasts; Rattus norvegicus, H9c2, 72 h, H9c2, 72 h/37°C, mean ± SD, n ≥ 4, read-out: IC50): 416 ± 122 µM
- IC50 (H9c2 cardiomyoblasts; Rattus norvegicus, H9c2, H9c2, 10 000 b/j, průměr (mean), sheet Bp4eA, read-out: IC50 měřené): 416 µM
- IC50 (H9c2 cardiomyoblasts; Rattus norvegicus, H9c2, H9c2, 10 000 b/j, single experiment (date), sheet Bp4eA, read-out: IC50 měřené): 306 µM
- Highest concentration in plasma ([1]; rat plasma, after 300 min post i.v. administration of Bp4eT): < 1 µM
- Exposure relative to that of the parent compound ([1]; rats, intravenous administration of Bp4eT): 20%
- IC50 [2]: 52 to 207 µM
- viability at 72 h, 1 μM [3, 6]: 110%
- viability at 72 h, 1 μM [3, 7]: 100%
- viability at 72 h, 3 μM [3, 6]: 106%
- viability at 72 h, 3 μM [3, 7]: 98.2%
- viability at 72 h, 10 μM [3, 6]: 103%
- viability at 72 h, 10 μM [3, 7]: 94.7%
- viability at 72 h, 30 μM [3, 6]: 101%
- viability at 72 h, 30 μM [3, 7]: 92.8%
- viability at 72 h, 100 μM [3, 6]: 88.8%
- viability at 72 h, 100 μM [3, 7]: 87.3%
- viability at 72 h, 300 μM [3, 6]: 80.5%
- viability at 72 h, 300 μM [3, 7]: 78.1%
- viability at 72 h, 1000 μM [3, 6]: 37.5%
- viability at 72 h, 1000 μM [3, 7]: 47.2%
- IC50 ([4]; 3T3, 10 000 b/j, individual experiments, read-out: IC50): 1010 µM and 1150 µM
- MTT viability (0 = 100) ([4]; 3T3, 10 000 b/j, koncentrace 1 μM, individual experiments): 95.1233 and 93.3461 and 101.857
- MTT viability (0 = 100) ([4]; 3T3, 10 000 b/j, koncentrace 3 μM, individual experiments): 92.5164 and 97.328 and 96.9903
- MTT viability (0 = 100) ([4]; 3T3, 10 000 b/j, koncentrace 10 μM, individual experiments): 86.2678 and 91.552 and 97.4344
- MTT viability (0 = 100) ([4]; 3T3, 10 000 b/j, koncentrace 30 μM, individual experiments): 90.9815 and 83.2122 and 96.551
- MTT viability (0 = 100) ([4]; 3T3, 10 000 b/j, koncentrace 100 μM, individual experiments): 87.8661 and 89.8957 and 82.8198
- MTT viability (0 = 100) ([4]; 3T3, 10 000 b/j, koncentrace 300 μM, individual experiments): 76.7642 and 78.9793 and 76.2498
- MTT viability (0 = 100) ([4]; 3T3, 10 000 b/j, koncentrace 1000 μM, individual experiments): 48.7008 and 53.1589 and 49.6824
- IC50 ([4]; Mus musculus, Fibroblast, 3T3, 10 000 b/j, individual experiments, read-out: IC50): 748 µM
- IC50 ([4]; Mus musculus, Fibroblast, 3T3, 10 000 b/j, mean, read-out: IC50, průměr): 1030 µM
- IC50 ([4]; Mus musculus, Fibroblast, 72 h, 3T3, 72 h/37°C, mean ± SD, n ≥ 4, read-out: IC50): 1030 ± 204 µM
- viability at 3 h, 100 nM ([5]; 3 hodiny): 96.8%
- viability at 24 h, 100 nM ([5]; 24 hodin): 95.6%
- viability at 72 h, 100 nM ([5]; 72 hodin): 93%
